Our source for the Papp values is PubChem BioAssay AID1508612.

The data set can be described thus: passive permeability, PAMPA, ADME assay (AID 1508612). The following applies: pH 7.4, 30.0 min, 50.0 µM. (The PAMPA barrier holds no transporters, so it reflects passive diffusion.)
As usually defined, the Papp is a coefficient for how fast a substance crosses the barrier. Read a high Papp as fast passage. `CC(C)c1ccccc1-c1nc2c(c(NCc3ccc(-c4cccnc4)cc3)n1)CNC2` had a Papp of 478 ×10⁻⁶ cm/s.
On to `Cc1ccc(S(=O)(=O)Nc2cnccc2C(=O)Nc2nc(-c3ccc(Oc4ccccc4)cc3)cs2)cc1`, for which the apparent permeability coefficient (Papp) is 44.4 ×10⁻⁶ cm/s.
Turning to `c1ccc2c(Nc3nccs3)nc(-c3ccncc3)nc2c1`, the Papp was found to be 150 ×10⁻⁶ cm/s.
Under `Fc1ccc(Nc2nc(-c3ccncc3Cl)nc3ccccc23)cc1F` stands 72.2 ×10⁻⁶ cm/s; under `COc1cc(NC(=O)c2cc(-c3ccccc3O)no2)cc(OC)c1OC`, 680 ×10⁻⁶ cm/s.
Under `Cc1cc(C)nc(NC(=S)N2CCN(c3ccncc3)CC2)c1` stands 450 ×10⁻⁶ cm/s; under `Cc1ccnc(NC(=S)N2CCN(c3ccc(C(F)(F)F)cc3[N+](=O)[O-])CC2)c1`, over 1000 ×10⁻⁶ cm/s.
Turning to `NC(=O)C1CCN(c2nc(-c3cccnc3)cs2)CC1`, the Papp was determined as 23.2 ×10⁻⁶ cm/s.
`C[S+](=O)([O-])c1ccc(-c2nc(C(=O)NCc3cccnc3)n3ccccc23)cc1` showed a Papp of 540 ×10⁻⁶ cm/s.
`N#Cc1ccc(-c2csc(N3CCC(C(N)=O)CC3)n2)cc1` showed a Papp of 406 ×10⁻⁶ cm/s.
In turn, `COC(=O)Nc1nc2ccc(SC(C)C)cc2[nH]1` came in with an apparent permeability coefficient (Papp) of 433 ×10⁻⁶ cm/s.
Under `Oc1ccc(CNc2ccccc2C(F)(F)F)c2cccnc12` stands 17 ×10⁻⁶ cm/s; under `CCN(CC)CCNC(=O)C1CCN(c2nn3cc(-c4ccc(F)cc4)nc3s2)CC1`, over 1000 ×10⁻⁶ cm/s; under `O=S(=O)(Nc1nccs1)c1ccc(NCc2cccc(F)c2O)cc1`, 2.11 ×10⁻⁶ cm/s.
Under `Cc1ccc(CNCc2cn[nH]c2-c2ccc(C)cc2)cc1` stands over 1000 ×10⁻⁶ cm/s.
`C[S+](=O)([O-])c1ccc(-c2nc(C(=O)N3CCOCC3)n3ccncc23)cc1` gave a Papp of 8.31 ×10⁻⁶ cm/s.
The result for `c1ccc(-c2cn[nH]c2)cc1` reads 288 ×10⁻⁶ cm/s.
The result for `Cn1cnc2c(F)c(Nc3ccc(Br)cc3Cl)c(C(=O)NOCCO)cc21` reads 131 ×10⁻⁶ cm/s; that for `COc1cccc(NC(=O)c2cccc3c(=O)c4c([nH]c23)CCCC4)c1`, over 1000 ×10⁻⁶ cm/s; that for `COc1ccnc(NC(=S)N2CCN(c3ccccc3C(F)(F)F)CC2)c1`, 489 ×10⁻⁶ cm/s.
The result for `CCOC(=O)C1CCN(C(=O)C(C)(C)NC(=O)Nc2ccc(Cl)cc2Cl)CC1` reads 725 ×10⁻⁶ cm/s.
In the case of `Cc1ccc(-c2nc(C)c(C(=O)Nc3ccc4c(c3)C(=O)N3CCC[C@H]3C(=O)N4)s2)cc1`, the Papp was 976 ×10⁻⁶ cm/s.
Under `Cc1noc(C)c1-c1ccc(-c2cc(C(N)=O)c(NC(N)=O)s2)c(O[C@H]2CCNC2)c1` stands under 1 ×10⁻⁶ cm/s.
The result for `Clc1ccccc1Nc1nc(-c2ccncc2)nc2ccccc12` reads over 1000 ×10⁻⁶ cm/s.
Turning to `CN1C(=O)c2ccccc2[S@](=O)c2ccc(C(=O)NCCN3CCCC3)cc21`, the Papp was 94.2 ×10⁻⁶ cm/s.
The result for `CC(=O)c1c(C)[nH]c(C(=O)Nc2cccc([S+](=O)([O-])N3CCC(F)(F)CC3)c2)c1C` reads over 1000 ×10⁻⁶ cm/s; that for `CC(C)CC(C)NC(=O)c1noc(-c2ccc[nH]c2=O)n1` (configuration not stated), 16.6 ×10⁻⁶ cm/s.
Turning to `NC(=O)COc1ccc(C2CC(=O)Nc3n[nH]c(Nc4ccccc4)c32)cc1` (configuration not stated), the Papp worked out at 2.8 ×10⁻⁶ cm/s.
In turn, `Cc1nn2c(c1-c1ccccc1-c1ccccc1)N(CC1CC1)CCC2` yielded a Papp of over 1000 ×10⁻⁶ cm/s.
Under `Nc1nc2c(s1)C(c1cc(Cl)ccc1F)CC(=O)N2` (configuration not stated) stands 476 ×10⁻⁶ cm/s.
Under `CN1C[C@@H]2C[C@H]1CN2c1cc2c(cc1F)c(=O)c(C(=O)O)cn2C1CC1` stands under 1 ×10⁻⁶ cm/s.
The compound `CCNC(=O)c1ccc(-c2ccc3ncnc(NCC4CCCO4)c3c2)o1` (configuration not stated) registered a Papp of 146 ×10⁻⁶ cm/s.
The compound `CN(Cc1ccc(/C=C/C(=O)NO)cc1)CC12CC3CC(CC(C3)C1)C2` yielded a Papp of over 1000 ×10⁻⁶ cm/s.
`CCOc1ccc(CCNC(=O)c2cc3sccc3n2C)cc1OCC` returned a Papp of over 1000 ×10⁻⁶ cm/s.
The result for `Cc1nnc2n1-c1ccc(Cl)cc1C(c1ccccc1)=NC2` reads 125 ×10⁻⁶ cm/s; that for `COc1ccc2[nH]cc(CCNC(=O)c3cnn(-c4ccc(C)cc4)c3C3CCN(C(=O)OC(C)(C)C)CC3)c2c1`, 153 ×10⁻⁶ cm/s.
The result for `COc1cc2c3cc1Oc1c(O)c(OC)cc4c1[C@@H](Cc1ccc(cc1)Oc1cc(ccc1O)C[C@H]3N(C)CC2)N(C)CC4` reads 327 ×10⁻⁶ cm/s; that for `COc1cc(C2CC(=O)Nc3cc4c(cc32)OCCO4)cc(Br)c1OC` (configuration not stated), 376 ×10⁻⁶ cm/s; that for `O=C1Nc2ccccc2/C1=C/c1ccnc2ccccc12`, over 1000 ×10⁻⁶ cm/s.
Consider `COC(=O)c1cc2occc2n1Cc1nc(-c2ccc(C)cc2)oc1C`, for which the Papp stood at 40.3 ×10⁻⁶ cm/s.
`O=C(NCC1CCOCC1)C1CC(=O)N(c2n[nH]c3cc(Br)ccc23)C1` (configuration not stated): the Papp stood at 16.1 ×10⁻⁶ cm/s.
Compound `Cc1ccccc1C(=O)NC1CCN(c2ccc3nnc(C4CC4)n3n2)CC1` had an apparent permeability coefficient (Papp) of 97.8 ×10⁻⁶ cm/s.
Under `CC(=O)Nc1nc(-c2ccc3c(c2)CCN3C(=O)c2ccccc2C)c(C)s1` stands over 1000 ×10⁻⁶ cm/s.
The result for `Cc1nc2ccc(C(=O)N3CCC4(CC3)CC(=O)c3c(cnn3C(C)C)C4)cc2[nH]1` reads 16.5 ×10⁻⁶ cm/s.
The compound `CCN(CC)CCCNC(=O)c1oc2c(c1C)-c1nn(Cc3ccc(Cl)cc3)cc1CC2` came in with a Papp of over 1000 ×10⁻⁶ cm/s.
Under `CN(C)c1cccc(-c2nccc(N3CCC(C(N)=O)CC3)n2)c1` stands 287 ×10⁻⁶ cm/s.
Under `COc1cc(Cl)c(C)cc1NS(=O)(=O)c1c(C)nc2sccn2c1=O` stands 787 ×10⁻⁶ cm/s; under `CSc1nn(Cc2cccc(C)c2)c(N)c1S(=O)(=O)c1ccccc1`, 516 ×10⁻⁶ cm/s; under `COc1cc(OC)c2c(=O)[nH]c(-c3cc(C)c(OCCO)c(C)c3)nc2c1`, 540 ×10⁻⁶ cm/s.
As for `CC(C)(C)c1cc(NC(=O)Nc2ccc(-c3cn4c(n3)sc3cc(OCCN5CCOCC5)ccc34)cc2)no1`, the Papp was under 1 ×10⁻⁶ cm/s.
`CCOc1ccccc1C(=O)Nc1ccncc1C(=O)Nc1cccc(S(=O)(=O)C(F)(F)F)c1` returned a Papp of 99.5 ×10⁻⁶ cm/s.
`CC(=O)c1ccc(N2CCN(S(=O)(=O)c3ccc4[nH]c(=O)[nH]c4c3)CC2)cc1`: the Papp was under 1 ×10⁻⁶ cm/s.
The result for `O=C(O)C1CCN(c2ncc(-c3ccc4c(c3)OCCCO4)s2)CC1` reads 10.1 ×10⁻⁶ cm/s; that for `NC(=O)C1CCN(c2nc(-c3cc4ccccc4o3)cs2)CC1`, 66.2 ×10⁻⁶ cm/s.
The result for `CN[C@@H](C)C(=O)N[C@@H]1C(=O)N(Cc2c(C)ccc3ccccc23)c2ccc(C#N)cc2N(C(C)=O)[C@H]1C` reads 551 ×10⁻⁶ cm/s; that for `COc1ccc(CNC(=O)Cn2nc3c(cc2=O)CCCC3)cc1`, 40.6 ×10⁻⁶ cm/s.
Under `CC1=C(C(=O)Nc2nncs2)C2(CCCC2)N=C(Nc2nc3ccccc3o2)N1` stands under 1 ×10⁻⁶ cm/s; under `COc1cc(=O)n2c(c1C(=O)N(C)Cc1cscn1)CCN(C(=O)c1ccc(C)cc1C)CC2`, 9.91 ×10⁻⁶ cm/s.
For `NC1(c2ccccc2Cl)CCCCC1=O` (configuration not stated), the apparent permeability coefficient (Papp) is 62 ×10⁻⁶ cm/s.
`COc1ccc(C(=O)N2CCCC(c3nn(-c4ccc(OC)cc4)c(=O)[nH]3)C2)cc1` (configuration not stated): the Papp was found to be 599 ×10⁻⁶ cm/s.
Take `COc1ccnc(NC(=S)N2CCN(c3ncc(C(F)(F)F)cc3Cl)CC2)c1`: the Papp was over 1000 ×10⁻⁶ cm/s.
The result for `Cc1csc2nc(-c3cccc(NC(=O)c4ccccc4Cl)c3)cn12` reads 651 ×10⁻⁶ cm/s; that for `CN(C)c1cccc(-c2cc(N3CCC(C(N)=O)CC3)ncn2)c1`, 37.8 ×10⁻⁶ cm/s.
The result for `CCOc1ccccc1C(=O)Nc1cccnc1C(=O)Nc1cccc(S(=O)(=O)C(F)(F)F)c1` reads 8.1 ×10⁻⁶ cm/s; that for `CN(C)c1cccc(-c2c3c(=O)n(-c4ccccc4Cl)[nH]c3cc(=O)n2C)c1`, 13.9 ×10⁻⁶ cm/s.
Under `Cc1ccc(S(=O)(=O)Nc2cc(F)ccc2C(=O)Nc2nc(-c3ccccc3)cs2)cc1` stands 244 ×10⁻⁶ cm/s; under `CCCCCCOc1ccc(OC(=O)c2ccncc2)cc1`, 600 ×10⁻⁶ cm/s; under `Cc1ccc(S(=O)(=O)N2CCN(C(=O)c3cc4c(s3)CCC4)CC2)cc1`, over 1000 ×10⁻⁶ cm/s.
`CC(=O)Nc1ccc(C(=O)Nc2ccccc2N)cc1`: the Papp is under 1 ×10⁻⁶ cm/s.
Under `COc1ccc(NC(=O)c2ccc[nH]2)cc1S(=O)(=O)Nc1ccc(Br)cc1` stands over 1000 ×10⁻⁶ cm/s; under `CC(C)(C)OC(=O)N[C@@H](Cc1ccc(OS(=O)(=O)c2cccc3cnccc23)cc1)C(=O)N1CCCN(C(=O)OC(C)(C)C)CC1`, 818 ×10⁻⁶ cm/s; under `CN(C)c1cccc(-c2nnc(N3CCC(C(N)=O)CC3)s2)c1`, 119 ×10⁻⁶ cm/s.
Compound `CCc1cccc(NS(=O)(=O)c2ccc3c(c2)CC(C)N3C(=O)C2CC2)c1` (configuration not stated) returned a Papp of over 1000 ×10⁻⁶ cm/s.
On to `CCOc1ccc(NC(=O)c2cccc(-n3cccc3)c2)cc1S(=O)(=O)N1CCOCC1`, for which the Papp is 80.4 ×10⁻⁶ cm/s.
As to `COC[C@@H]1CN(C(=O)c2nn(C)c3ccccc23)C[C@H]1c1nc(C)no1`, the Papp was found to be 165 ×10⁻⁶ cm/s.
Under `Cn1cc(Cl)c(C2N=C(Nc3nc4ccccc4o3)NC3=C2C(=O)CCC3)n1` (configuration not stated) stands 633 ×10⁻⁶ cm/s; under `O=c1cc(/C=C/c2c(F)cccc2Cl)[nH]c2ccccc12`, 205 ×10⁻⁶ cm/s; under `CC(C)CNc1ncnc2onc(-c3ccc(Cl)cc3)c12`, over 1000 ×10⁻⁶ cm/s.
The result for `Cc1c(-c2cccc3c(CCCOc4cccc5ccccc45)c(C(=O)O)n(Cc4cccnc4)c23)c(COc2ccc(N3CCN([S+](=O)([O-])N(C)C)CC3)cc2)nn1C` reads 244 ×10⁻⁶ cm/s; that for `COc1ccc(C)cc1NC(=O)c1cnc(-c2ccc(F)cc2)nc1-c1ccncc1`, 130 ×10⁻⁶ cm/s; that for `Cc1ccnc(NC(=S)N2CCN(c3cccc(C(F)(F)F)n3)CC2)c1`, 866 ×10⁻⁶ cm/s.
Take `CN1CCN(CCCN2c3ccccc3Sc3ccc(S(=O)(=O)N(C)C)cc32)CC1`: the Papp is over 1000 ×10⁻⁶ cm/s.
Under `CC(C)(O)/C=C\C(=O)[C@](C)(O)[C@H]1[C@H](O)C[C@]2(C)[C@@H]3CC=C4[C@@H](C=C(O)C(=O)C4(C)C)[C@]3(C)C(=O)C[C@@]12C` stands 184 ×10⁻⁶ cm/s; under `CC(Nc1ccc([S+](=O)([O-])Nc2nccs2)cc1)c1ccccc1` (configuration not stated), 641 ×10⁻⁶ cm/s.
`Cc1ccc(S(=O)(=O)Nc2cnccc2C(=O)Nc2nc(-c3cccc(Cl)c3)cs2)cc1` registered a Papp of 38 ×10⁻⁶ cm/s.
Under `O=c1c(-c2cccs2)ccc2n1C[C@H]1C[C@@H]2CN(C2CCOCC2)C1` stands 460 ×10⁻⁶ cm/s; under `COc1ccccc1-c1nc(NCc2ccc(-c3cccnc3)cc2)c2ccccc2n1`, 980 ×10⁻⁶ cm/s; under `Fc1cc(Nc2nc(-c3ccncc3)nc3ccccc23)ccc1-c1ccncc1`, 15.4 ×10⁻⁶ cm/s.
Under `CC(=O)NCCNC(=O)c1ccc(-c2ncc3cnc(-c4cccc(F)c4)cn23)cc1` stands 40.6 ×10⁻⁶ cm/s.
The result for `Cc1cccc(-n2nc(C)c3c2NC(=O)CSC3c2ccccc2Cl)c1` (configuration not stated) reads over 1000 ×10⁻⁶ cm/s.
On to `COc1cccc(CNc2ccc(S(=O)(=O)Nc3cc(C)on3)cc2)c1O`, for which the Papp stood at 62.9 ×10⁻⁶ cm/s.
Under `O=C(NC1CCCc2c1cnn2-c1ccc(F)cc1F)c1ccc(C2(C(F)(F)F)N=N2)cc1` (configuration not stated) stands under 1 ×10⁻⁶ cm/s.
